Results from patent US20060148752A1, “Method of treating soild tumors and leukemias using combination therapy of vitamin D and anti-metabolic nucleoside analogs” (priority 2004, published 2006).
“Also recorded” adds a separate entry of the source.

Assays:
Type in all cases: cell-based, human
caspase-6 = experiment: Caspase-6 cleavage (Western blot) and activity (colorimetric assay) in capan-1 cells; conditions: vehicle or 0.75 μM calcitriol 24 h, then varying concentrations of gemcitabine
Procedure: (§1) FIG. 5 is a series of Western blots illustrating the effects of treatment with calcitriol and gemcitabine on caspase pathway induction in capan-1 cells. […] Cell lysates were prepared and analyzed by Western blot for caspase-3, caspase-6, caspase-8, and caspase-9. […] FIGS. 6A-D show quantitation of caspase-3, caspase-6, caspase-8, and caspase-9. Activity of caspase-3 (FIG. 6A), caspase-6 (FIG. 6B), caspase-8 (FIG. 6C), and caspase-9 (FIG. 6D) in capan-1 cells was measured by caspase-family colorimetric substrate assays, according to the manufacturer's protocol. Absorbance at 400 nm was determined, and the caspase activity was expressed as absorbance (ODU) per milligram of protein per reaction. […] Caspase activity was expressed as absorbance (O.D.) per milligram of protein per reaction. For Western blot analysis, capan-1 cells were harvested and lysed in Triton-X100/SDS buffer as described previously ([…] et al., J. Biol. Chem. 276(33):30923-33 (2001), which is hereby incorporated by reference in its entirety). Proteins were transferred to PVDF membrane, and Western blots developed using Renaissance Enhanced Chemiluminescence Reagents (NEN Life Science Products, Boston, Mass.) or SuperSignal (Pierce, Rockford, Ill.).

caspase-9 = experiment: Caspase-9 cleavage (Western blot) and activity (colorimetric assay) in capan-1 cells; conditions: vehicle or 0.75 μM calcitriol 24 h, then varying concentrations of gemcitabine
Procedure: as §1

caspase-8 = experiment: Caspase-8 cleavage (Western blot) and activity (colorimetric assay) in capan-1 cells; conditions: vehicle or 0.75 μM calcitriol 24 h, then varying concentrations of gemcitabine
Procedure: as §1

P-Erk1/2 = experiment: Immunoblot of P-Erk1/2 expression in capan-1 cells; conditions: vehicle or 0.75 μM calcitriol 24 h, then varying concentrations of gemcitabine 24 h
Procedure: (§2) FIG. 4 is an immunoblot showing inhibition of survival signaling pathways in capan-1 by treatment with gemcitabine and 1,25D3. Capan-1 cells were treated 24 h with either vehicle or 0.75 μM calcitriol and then were treated with varying concentrations of gemcitabine for another 24 h. Cells were processed for immunoblotting to assess P-ErK1/2 and P-Akt expression. P-Erk1/2 was not affected by either agent alone or by the calcitriol/gemcitabine combination. […] For Western blot analysis, capan-1 cells were harvested and lysed in Triton-X100/SDS buffer as described previously ([…] et al., J. Biol. Chem. 276(33):30923-33 (2001), which is hereby incorporated by reference in its entirety). Proteins were transferred to PVDF membrane, and Western blots developed using Renaissance Enhanced Chemiluminescence Reagents (NEN Life Science Products, Boston, Mass.) or SuperSignal (Pierce, Rockford, Ill.).

P-Akt = experiment: Immunoblot of P-Akt expression in capan-1 cells; conditions: vehicle or 0.75 μM calcitriol 24 h, then varying concentrations of gemcitabine 24 h
Procedure: as §2

| Structure (SMILES) | caspase-6 cleavage/activation (caspase-6) | caspase-9 cleavage/activation (caspase-9) | caspase-8 cleavage/activation (caspase-8) | P-Erk1/2 expression (P-Erk1/2) | P-Akt levels (P-Akt) |
| --- | --- | --- | --- | --- | --- |
| C=C1/C(=C\C=C2/CCC[C@]3(C)[C@@H]([C@H](C)CCCC(C)(C)O)CC[C@@H]23)C[C@@H](O)C[C@@H]1O [calcitriol, 1,25-dihydroxycholecalciferol] | not cleaved at detectable levels | not cleaved at detectable levels; also recorded: modestly increased | not cleaved at detectable levels; also recorded: no change | not affected | modestly reduced |
| Nc1ccn([C@@H]2O[C@H](CO)[C@@H](O)C2(F)F)c(=O)n1 [gemcitabine] | – | no significant change; also recorded: modestly increased | increase in the cleaved, activated form | not affected | little affected; also recorded: not affected |
